US9968572B2, “Clonidine and GABA compounds in a biodegradable polymer carrier” (Warsaw Orthopedic, Inc., priority 2010, dated 2018)

Columns and labels:
[1] = system: Sprague Dawley rats with chronic constriction injury (CCI) of the sciatic nerve; test: Mechanical paw withdrawal (allodynia) Von Frey threshold after chronic constriction injury of the sciatic nerve; format: in vivo; settings: rat CCI model; gabapentin 90 mg/kg subcutaneous 1 hour prior to each assessment; days 8, 15, 22 post-CCI; vs vehicle (PBS); 2-factor ANOVA, p<0.001
Experimental: (§1) Rats were treated with a subcutaneous human equivalent dose of 885 mcg of gabapentin 1 hour prior to testing.
(§2) Eight Sprague Dawley rats were given a chronic constriction injury (CCI) of the sciatic nerve. The CCI was induced as described by Bennett and Xie (1988). Animals were anesthetized with pentobarbital (60 mg/kg). The right common sciatic nerve was exposed by blunt dissection between the femoral biceps and quadriceps muscle and freed from adherent tissue. Four loose ligatures were placed 1 mm apart using 4-0 chromic gut absorbable sutures. Four animals received a subcutaneous injection of gabapentin (90 mg/kg) 1 hour prior to each post-CCI pain assessment (BP) and four animals received vehicle (PBS) injections. Thermal hyperalgesia paw withdrawal latency response of the injured (rt) limb was measured 2 days before the CCI and on days 7, 14, and 21 post-CCI surgery. This is considered a model of neuropathic pain. FIG. 3 is a bar graph illustration showing that Von Frey withdrawal threshold is increased by gabapentin in rats with an injury to the sciatic nerve.
Mechanical paw withdrawal (allodynia) thresholds of each animal were measured the day before the CCI and on days 8, 15, and 22. FIG. 4 is a bar graph illustration showing that thermal withdrawal latency is increased by gabapentin in rats with an injury to the sciatic nerve. This is considered a model of tactile somatic pain.

[2] = system: Sprague Dawley rats with chronic constriction injury (CCI) of the sciatic nerve; test: Thermal hyperalgesia paw withdrawal latency after chronic constriction injury of the sciatic nerve; format: in vivo; settings: rat CCI model; gabapentin 90 mg/kg subcutaneous 1 hour prior to each assessment; days 7, 14, 21 post-CCI; injured (rt) limb; vs vehicle (PBS); 2-factor ANOVA, p<0.0001
Experimental: as §1, §2

NCC1(CC(=O)O)CCCCC1 [gabapentin, 2-[1-(aminomethyl)cyclohexyl]acetic acid]
Von Frey threshold, expressed as a percent of baseline [1]: significantly higher
Thermal withdrawal latency, expressed as a percent of baseline [2]: significantly higher
